Where two headings read alike, the source gives them in different places.
Experiments:
[1] = tested on: Enzyme of the genus Aspergillus (glycerol oxidase); test: Substrate specificity, relative activity by 4-AA method; format: biochemical, Aspergillus japonicus KY-45; conditions: substrate equimolar to glycerol
Protocol: (§1) The enzyme activity is expressed by "unit." A "unit" of the enzyme activity is defined as that amount of enzyme which will decompose 1μ mole of glycerol at 37° C. in 1 minute in the presence of oxygen. The determination of the enzyme activity is carried out as follows: glycerol is reacted with glycerol oxidase with stirring to form hydrogen peroxide, and 4-aminoantipyrine and phenol are reacted with the resulting hydrogen peroxide in the presence of peroxidase to derive quinoneimine pigment. The optical density at 500 nm of the resulting quinoneimine pigment is measured to determine the amount of generated hydrogen peroxide, whereby the enzyme activity is determined (which will be hereinafter referred to as "4-AA method").
(§2) Enzymological and physico-chemical properties of glycerol oxidase thus obtained are described below (as glycerol oxidase, the respective purified preparates obtained in Examples 1 and 2, are used).
(§3) The relative activity is measured using other substrates in equimolar amounts to that of glycerol in the procedure for measuring the activity according to 4-AA method.
(§4) The relative activities on other substrates are given in Table 3, the activity on glycerol being defined as 100.
(§5) The reagents (1)-(6) are mixed in a test tube, and then shaken at 37° C. for 5 minutes. Then, enzyme solution is added thereto, and thus obtained mixture is made up to 3 ml with ammonium buffer solution. Reaction is carried out at 37° C. for 10 minutes with shaking. On the other hand, similar procedure is repeated using water in place of the test solution as a reference. The optical density of the reaction solution at 500 nm is measured, and a difference from the control is determined as Δ OD (optical density).

[2] = tested on: Enzyme of the genus Neurospora (glycerol oxidase); test: as above; format: biochemical, Neurospora crassa KY-462; conditions: substrate equimolar to glycerol
Protocol: as §1, §2, §3, §4, §5

[3] = tested on: Enzyme of the genus Neurospora (glycerol oxidase); test: Inhibition of enzyme activity by 1 mM inhibitors (4-AA method); format: biochemical, Neurospora crassa KY-462; parameters: key: % of activity without inhibitor (no inhibitor = 100)
Protocol: as §1
(§6) Enzymes activities obtained by adding 1 mM of various inhibitors are shown in Table 1, the activity of the enzyme with no addition of the inhibitor being defined as 100. The activities are measured according to 4-AA method deriving a pigment of 4-aminoantipyrine system from the generated H2 O2.
as §2
(§7) Determination of the enzyme activity is carried out by reacting hydrogen peroxide generated by the enzyme with 4-aminoantipyrine and phenol in the presence of peroxidase to obtain quinoneimine pigment, and quantitatively determining the resulting quinoneimine pigment.
as §5
(§8) On the other hand, the absorption coefficient of 0.5 mM of quinoneimine pigment is reported as 5.33 [Clin. Chem. 20, 470 (1974)], and thus, if the optical density (Δ OD) at 500 nm of 3 ml of the reaction solution obtained according to the foregoing operational procedure IV-(c) is represented by a, the desired enzyme activity (A) per milliliter of the enzyme solution is calculated from the following formula: [formula]

[4] = tested on: Enzyme of the genus Aspergillus (glycerol oxidase); test: as above; format: biochemical, Aspergillus japonicus KY-45; parameters: key: % of activity without inhibitor (no inhibitor = 100)
Protocol: as §1, §6, §2, §7, §5, §8

[5] = 1 mM inhibitor, Enzyme of the genus Neurospora, 4-AA method
[6] = 1 mM inhibitor, Enzyme of the genus Aspergillus, 4-AA method

Row | SMILES | Relative activity on substrate (activity on glycerol defined as 100) [1] | Relative activity on substrate (activity on glycerol defined as 100) [2] | Enzyme activity on adding inhibitor (activity with no inhibitor defined as 100) [4, 6] | further results
1 | OCCCO [1,3-propanediol] | 3.3 | 0 | – | –
2 | CC(O)C(C)O (stereo not shown) [2,3-butanediol] | 0.3 | 0 | – | –
3 | CC(C)O [isopropyl alcohol] | 0 | 0 | – | –
4 | OCC(O)CO [glycerol] | 100 | 100 | – | –
5 | O=S(=O)([O-])[O-].[Zn+2] [ZnSO4] | – | – | – | Enzyme activity on adding inhibitor (activity with no inhibitor defined as 100) [3, 5]: 23
6 | N[C@@H](CS)C(=O)O [cysteine] | – | – | – | Enzyme activity on adding inhibitor (activity with no inhibitor defined as 100) [3, 5]: 60
7 | CC(O)CCO (stereo not shown) [1,3-butanediol] | 2.0 | 0 | – | –
8 | Cl.NO [NH2 OH--HCl] | – | – | 0 | Enzyme activity on adding inhibitor (activity with no inhibitor defined as 100) [3, 5]: 0
9 | CCO [ethanol] | 0 | 0 | – | –
10 | Oc1cccc2cccnc12 [8-hydroxyquinoline] | – | – | – | Enzyme activity on adding inhibitor (activity with no inhibitor defined as 100) [4]: 90
11 | O=C(O)CN(CCN(CC(=O)O)CC(=O)O)CC(=O)O [EDTA] | – | – | – | Enzyme activity on adding inhibitor (activity with no inhibitor defined as 100) [4]: 105; Enzyme activity on adding inhibitor (activity with no inhibitor defined as 100) [3, 5]: 80
12 | O=C(O)c1cc[c]([Hg][Cl])cc1 [PCMB, p-chloromercuribenzoate] | – | – | 50 | Enzyme activity on adding inhibitor (activity with no inhibitor defined as 100) [3, 5]: 108
13 | O=C(O)CI [iodoacetate] | – | – | – | Enzyme activity on adding inhibitor (activity with no inhibitor defined as 100) [3]: 100
14 | [Cl][Hg][Cl] [HgCl2] | – | – | 20 | Enzyme activity on adding inhibitor (activity with no inhibitor defined as 100) [3, 5]: 23
15 | OCCCCO [1,4-butanediol] | 0.3 | 0 | – | –
16 | O=P(O)(O)OCC(O)CO (stereo not shown) [Glycerol-3-phosphoric acid] | 0.4 | 21 | – | –
17 | CCN1C(=O)C=CC1=O [N-ethylmaleimide] | – | – | 100 | –
18 | c1ccc(-c2ccccn2)nc1 [α,α'-dipyridyl] | – | – | 85 | –
19 | O=S(=O)([O-])[O-].[Fe+2] [FeSO4] | – | – | – | Enzyme activity on adding inhibitor (activity with no inhibitor defined as 100) [3, 5]: 0
20 | CC(=O)[O-].CC(=O)[O-].[Pb+2] [Pb(CH3 COO)2] | – | – | 15 | –
21 | Cc1ccc2ccc3ccc(C)nc3c2n1 [neocuproine] | – | – | 100 | –
22 | c1cnc2c(c1)ccc1cccnc12 [0-phenanthroline] | – | – | 90 | –
23 | O=[N+]([O-])[O-].[Ag+] [AgNO3] | – | – | 30 | –
24 | [N-]=[N+]=[N-].[Na+] [NaN3] | – | – | 20 | –
25 | O=S(=O)([O-])[O-].[Cu+2] [CuSO4] | – | – | 10 | Enzyme activity on adding inhibitor (activity with no inhibitor defined as 100) [3, 5]: 20
26 | CCCO [n-propyl alcohol] | 0 | 0 | – | –
27 | O[C@H](CS)[C@H](O)CS (racemic) [dithiothreitol] | – | – | 100 | –
28 | CC(O)CO (stereo not shown) [1,2-propanediol] | 10.5 | 0 | – | –

— patent US4202941A, “Glycerol oxidase and process for the production thereof and method for the quantitative determination of glycerol by glycerol oxidase” (Kyowa Hakko Kogyo, Co. Ltd., priority 1977, dated 1980)
